# From the supplement of paper PMC10307832
# How the values were obtained:
# Test in all cases: relative viability (nuclei count vs DMSO), 5 days (fraction); higher = more cells survive
# NCI-H1623 = test system: NCI-H1623
# Method in brief: (§1)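 Cells from lung cancer lines were seeded into 1536-well plates and, one day later, dosed by pin tool. Treatments were either a single drug or a fixed dose of an anchor drug with five library-drug doses (not always all listed) in √10 steps. After 5 days, nuclei were stained in a one-step fixation (final 0.05% Triton X-100, 1% formaldehyde, 1 ug/ml Hoechst) and counted on 4× images, and relative viability is the treated-to-vehicle nuclei ratio, as the median of duplicate plates.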
# ABC-1 = test system: ABC-1
# Method in brief: as §1
# NCI-H2009 = test system: NCI-H2009
# Method in brief: as §1
# EMC-BAC-2 = test system: EMC-BAC-2
# Method in brief: as §1
# NCI-H2228 = test system: NCI-H2228
# Method in brief: as §1
# A549 = test system: A549
# Method in brief: as §1
# Calu-6 = test system: Calu-6
# Method in brief: as §1
# IA-LM = test system: IA-LM
# Method in brief: as §1
# NCI-H1299 = test system: NCI-H1299
# Method in brief: as §1
# EBC-1 = test system: EBC-1
# Method in brief: as §1
# NCI-H1703 = test system: NCI-H1703
# Method in brief: as §1
structure (smiles),measurement,setting,value
Cc1csc(=NC2CCCCC2)n1/N=C/c1ccc(O)c(O)c1O [MIM1] + CCNC(=O)c1noc(-c2cc(C(C)C)c(O)cc2O)c1-c1ccc(CN2CCOCC2)cc1 [Luminespib] (partner 0.01 µM),relative viability,NCI-H1623; first compound 0.2 µM,0.522
same,relative viability,NCI-H1623; first compound 0.6325 µM,0.472
same,relative viability,NCI-H1623; first compound 2 µM,0.437
same,relative viability,NCI-H1623; first compound 6.325 µM,0.446
same,relative viability,NCI-H1623; first compound 20 µM,0.404
same,relative viability,ABC-1; first compound 0.2 µM,0.499
same,relative viability,ABC-1; first compound 0.6325 µM,0.835
same,relative viability,ABC-1; first compound 2 µM,0.497
same,relative viability,ABC-1; first compound 6.325 µM,0.399
same,relative viability,ABC-1; first compound 20 µM,0.315
same,relative viability,NCI-H2009; first compound 0.2 µM,1
same,relative viability,NCI-H2009; first compound 0.6325 µM,1.06
same,relative viability,NCI-H2009; first compound 2 µM,1.03
same,relative viability,NCI-H2009; first compound 6.325 µM,0.877
same,relative viability,NCI-H2009; first compound 20 µM,1.02
same,relative viability,EMC-BAC-2; first compound 0.2 µM,1.12
same,relative viability,EMC-BAC-2; first compound 0.6325 µM,1.14
same,relative viability,EMC-BAC-2; first compound 2 µM,1.13
same,relative viability,EMC-BAC-2; first compound 6.325 µM,1.03
same,relative viability,EMC-BAC-2; first compound 20 µM,0.423
same,relative viability,NCI-H2228; first compound 0.2 µM,0.18
same,relative viability,NCI-H2228; first compound 0.6325 µM,0.155
same,relative viability,NCI-H2228; first compound 2 µM,0.181
same,relative viability,NCI-H2228; first compound 6.325 µM,0.151
same,relative viability,NCI-H2228; first compound 20 µM,0.111
Cc1csc(=NC2CCCCC2)n1/N=C/c1ccc(O)c(O)c1O [MIM1] + COc1cc2c(Oc3ccc(NC(=O)C4(C(=O)Nc5ccc(F)cc5)CC4)cc3F)ccnc2cc1OCCCN1CCOCC1 [Foretinib] (partner 0.25 µM),relative viability,A549; first compound 0.2 µM,0.917
same,relative viability,A549; first compound 0.6325 µM,0.939
same,relative viability,A549; first compound 2 µM,1.02
same,relative viability,A549; first compound 6.325 µM,0.771
same,relative viability,A549; first compound 20 µM,0.144
same,relative viability,NCI-H1623; first compound 0.2 µM,0.88
same,relative viability,NCI-H1623; first compound 0.6325 µM,0.721
same,relative viability,NCI-H1623; first compound 2 µM,0.914
same,relative viability,NCI-H1623; first compound 6.325 µM,0.718
same,relative viability,NCI-H1623; first compound 20 µM,0.409
same,relative viability,ABC-1; first compound 0.2 µM,1.05
same,relative viability,ABC-1; first compound 0.6325 µM,1.12
same,relative viability,ABC-1; first compound 2 µM,0.981
same,relative viability,ABC-1; first compound 6.325 µM,0.324
same,relative viability,ABC-1; first compound 20 µM,0.328
same,relative viability,Calu-6; first compound 0.2 µM,0.847
same,relative viability,Calu-6; first compound 0.6325 µM,0.894
same,relative viability,Calu-6; first compound 2 µM,0.816
same,relative viability,Calu-6; first compound 6.325 µM,0.797
same,relative viability,Calu-6; first compound 20 µM,0.318
same,relative viability,IA-LM; first compound 0.2 µM,1.11
same,relative viability,IA-LM; first compound 0.6325 µM,1.29
same,relative viability,IA-LM; first compound 2 µM,1.28
same,relative viability,IA-LM; first compound 6.325 µM,0.842
same,relative viability,IA-LM; first compound 20 µM,0.476
same,relative viability,NCI-H1299; first compound 0.2 µM,1.15
same,relative viability,NCI-H1299; first compound 0.6325 µM,1.09
same,relative viability,NCI-H1299; first compound 2 µM,1.14
same,relative viability,NCI-H1299; first compound 6.325 µM,1.06
same,relative viability,NCI-H1299; first compound 20 µM,1.06
same,relative viability,NCI-H2009; first compound 0.2 µM,1.19
same,relative viability,NCI-H2009; first compound 0.6325 µM,1.25
same,relative viability,NCI-H2009; first compound 2 µM,1.27
same,relative viability,NCI-H2009; first compound 6.325 µM,1.09
same,relative viability,NCI-H2009; first compound 20 µM,0.566
same,relative viability,EBC-1; first compound 0.2 µM,0.108
same,relative viability,EBC-1; first compound 0.6325 µM,0.102
same,relative viability,EBC-1; first compound 2 µM,0.119
same,relative viability,EBC-1; first compound 6.325 µM,0.106
same,relative viability,EBC-1; first compound 20 µM,0.119
same,relative viability,NCI-H1703; first compound 0.2 µM,0.417
same,relative viability,NCI-H1703; first compound 0.6325 µM,0.391
same,relative viability,NCI-H1703; first compound 2 µM,0.375
same,relative viability,NCI-H1703; first compound 6.325 µM,0.296
same,relative viability,NCI-H1703; first compound 20 µM,0.181
same,relative viability,EMC-BAC-2; first compound 0.2 µM,0.698
same,relative viability,EMC-BAC-2; first compound 0.6325 µM,1
same,relative viability,EMC-BAC-2; first compound 2 µM,0.963
same,relative viability,EMC-BAC-2; first compound 6.325 µM,0.697
same,relative viability,EMC-BAC-2; first compound 20 µM,0.449
same,relative viability,NCI-H2228; first compound 0.2 µM,1.06
same,relative viability,NCI-H2228; first compound 0.6325 µM,0.951
same,relative viability,NCI-H2228; first compound 2 µM,0.853
same,relative viability,NCI-H2228; first compound 6.325 µM,0.583
same,relative viability,NCI-H2228; first compound 20 µM,0.247
Cc1csc(=NC2CCCCC2)n1/N=C/c1ccc(O)c(O)c1O [MIM1] + Cc1nc(Nc2ncc(C(=O)Nc3c(C)cccc3Cl)s2)cc(N2CCN(CCO)CC2)n1 [Dasatinib] (partner 0.075 µM),relative viability,NCI-H1623; first compound 0.2 µM,0.594
same,relative viability,NCI-H1623; first compound 0.6325 µM,0.476
same,relative viability,NCI-H1623; first compound 2 µM,0.498
same,relative viability,NCI-H1623; first compound 6.325 µM,0.536
same,relative viability,NCI-H1623; first compound 20 µM,0.299
same,relative viability,ABC-1; first compound 0.2 µM,0.598
same,relative viability,ABC-1; first compound 0.6325 µM,0.555
same,relative viability,ABC-1; first compound 2 µM,0.543
same,relative viability,ABC-1; first compound 6.325 µM,0.299
same,relative viability,ABC-1; first compound 20 µM,0.248
same,relative viability,NCI-H2009; first compound 0.2 µM,0.303
same,relative viability,NCI-H2009; first compound 0.6325 µM,0.327
same,relative viability,NCI-H2009; first compound 2 µM,0.293
same,relative viability,NCI-H2009; first compound 6.325 µM,0.204
same,relative viability,NCI-H2009; first compound 20 µM,0.123
same,relative viability,EMC-BAC-2; first compound 0.2 µM,0.218
same,relative viability,EMC-BAC-2; first compound 0.6325 µM,0.302
same,relative viability,EMC-BAC-2; first compound 2 µM,0.317
same,relative viability,EMC-BAC-2; first compound 6.325 µM,0.31
same,relative viability,EMC-BAC-2; first compound 20 µM,0.179
same,relative viability,NCI-H2228; first compound 0.2 µM,0.505
same,relative viability,NCI-H2228; first compound 0.6325 µM,0.524
same,relative viability,NCI-H2228; first compound 2 µM,0.66
same,relative viability,NCI-H2228; first compound 6.325 µM,0.205
same,relative viability,NCI-H2228; first compound 20 µM,0.0988
